The values that follow come from article PMC11395237, “Characteristics of a Novel Zearalenone Lactone Hydrolase ZHRnZ and Its Thermostability Modification” (International Journal of Molecular Sciences, 2024).

Holding throughout (experiment): HPLC-fluorescence of residual substrate
Common to all, as to format: biochemical
Conditions in all cases: read-out: Km (μg.mL^-1); pH 9.0, 45 °C, 10 min, 25 μg/mL enzyme, 10-60 μg/mL ZEN

In assay [1] the target is T1, ZHRnZ (Rosellinia necatrix, UniProt A0A1W2TNW3).
T1 construct: gene SAMD00023353_4301030; His-tag from pET28a (BamHI/XhoI), codon-optimized gene, E. coli BL21(DE3), Ni-NTA purified; homodimer by homology model
T1 sequence (A0A1W2TNW3 entry or part of it): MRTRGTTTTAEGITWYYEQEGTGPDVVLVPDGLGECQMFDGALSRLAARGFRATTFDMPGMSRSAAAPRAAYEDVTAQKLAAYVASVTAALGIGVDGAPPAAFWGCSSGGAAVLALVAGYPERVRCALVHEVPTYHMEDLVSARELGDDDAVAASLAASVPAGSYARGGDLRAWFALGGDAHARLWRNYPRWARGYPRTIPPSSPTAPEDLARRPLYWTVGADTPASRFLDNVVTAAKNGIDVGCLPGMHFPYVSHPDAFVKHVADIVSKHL
The source says: (§1) HPLC-fluorescence of residual substrate on ZHRnZ

The target in assay [2] is T2, ZHRnZ (Rosellinia necatrix, UniProt A0A1W2TNW3, E122R).
T2 construct: gene SAMD00023353_4301030; His-tag from pET28a (BamHI/XhoI), codon-optimized gene, E. coli BL21(DE3), Ni-NTA purified; homodimer by homology model
T2 sequence (A0A1W2TNW3 whole entry E122R): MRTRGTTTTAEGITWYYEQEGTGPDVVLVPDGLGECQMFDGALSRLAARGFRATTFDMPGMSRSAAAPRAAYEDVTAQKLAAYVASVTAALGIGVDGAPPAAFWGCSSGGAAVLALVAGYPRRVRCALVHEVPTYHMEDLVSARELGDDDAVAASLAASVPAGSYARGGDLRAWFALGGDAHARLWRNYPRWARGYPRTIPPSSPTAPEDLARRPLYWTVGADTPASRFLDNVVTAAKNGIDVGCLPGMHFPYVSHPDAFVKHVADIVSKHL
Excerpt: as §1

For assay [3], the target named is T3, ZHRnZ (Rosellinia necatrix, UniProt A0A1W2TNW3, E122Q).
T3 construct: gene SAMD00023353_4301030; His-tag from pET28a (BamHI/XhoI), codon-optimized gene, E. coli BL21(DE3), Ni-NTA purified; homodimer by homology model
T3 sequence (A0A1W2TNW3 whole entry E122Q): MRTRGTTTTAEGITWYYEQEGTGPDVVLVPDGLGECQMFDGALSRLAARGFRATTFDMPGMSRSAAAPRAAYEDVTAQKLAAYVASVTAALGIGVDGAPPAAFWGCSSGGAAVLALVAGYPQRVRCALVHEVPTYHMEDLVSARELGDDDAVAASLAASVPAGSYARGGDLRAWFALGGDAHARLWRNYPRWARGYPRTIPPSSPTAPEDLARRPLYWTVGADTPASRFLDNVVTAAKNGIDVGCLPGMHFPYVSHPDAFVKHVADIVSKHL
Excerpt: as §1

One may read the Km as the substrate concentration at which the rate is half of its maximum.

As for `C[C@H]1CCCC(=O)CCC/C=C/c2cc(O)cc(O)c2C(=O)O1` [ZEN], the results for the Michaelis constant (Km) on ZHRnZ [1], at ZHRnZ [2] and on ZHRnZ [3] were 67.6 µM, 25.5 µM and 271 µM, respectively.
